Reference: PubChem BioAssay (NCI)
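Step 1: Grow cells in 96-well plates. Step 2: Expose to compound for 48 hours at 5 concentrations. Step 3: Interpolate endpoints linearly; if unreached, use highest concentration. GI50: concentration for 50% inhibition of growth. TGI: total growth inhibition.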

Experiments:
Assay in all cases: DTP human tumour cell line panel, 48 h
[1] = test system: RPMI-8226 leukemia
[2] = test system: K-562 leukemia
[3] = test system: HCC-2998 colon
[4] = test system: UO-31 renal
[5] = test system: SF-295 CNS
[6] = test system: OVCAR-8 ovarian
[7] = test system: UACC-257 melanoma
[8] = test system: SR leukemia
[9] = test system: SNB-19 CNS
[10] = test system: 786-0 renal
[11] = test system: NCI-H226 lung
[12] = test system: CCRF-CEM leukemia
[13] = test system: SF-268 CNS
[14] = test system: NCI/ADR-RES ovarian
[15] = test system: MCF7 breast
[16] = test system: M14 melanoma
[17] = test system: T-47D breast
[18] = test system: SW-620 colon
[19] = test system: HCT-116 colon
[20] = test system: A498 renal
[21] = test system: LOX IMVI melanoma
[22] = test system: NCI-H23 lung
[23] = test system: TK-10 renal
[24] = test system: IGROV1 ovarian
[25] = test system: UACC-62 melanoma
[26] = test system: U251 CNS
[27] = test system: SK-MEL-5 melanoma
[28] = test system: PC-3 prostate

Question: Which results are given for `COc1cc(Nc2ccnc(NCCCNc3ccnc4cc(Cl)ccc34)n2)cc(OC)c1`?
Answer: GI50 [1]: 1560 nM; TGI [1]: 4110 nM; GI50 [2]: 520 nM; TGI [2]: 2390 nM; GI50 [3]: 1580 nM; TGI [3]: 3360 nM; GI50 [4]: 1370 nM; TGI [4]: 2790 nM; GI50 [5]: 1370 nM; TGI [5]: 2780 nM; GI50 [6]: 2070 nM; TGI [6]: 5650 nM; GI50 [7]: 1840 nM; TGI [7]: 3440 nM; GI50 [8]: 423 nM; TGI [8]: 2080 nM; GI50 [9]: 2320 nM; TGI [9]: 8000 nM; GI50 [10]: 1590 nM; TGI [10]: 3120 nM; GI50 [11]: 2500 nM; TGI [11]: 9160 nM; GI50 [12]: 1190 nM; TGI [12]: 3880 nM; GI50 [13]: 1800 nM; TGI [13]: 3880 nM; GI50 [14]: 2900 nM; TGI [14]: 12500 nM; GI50 [15]: 1280 nM; TGI [15]: 3000 nM; GI50 [16]: 1700 nM; TGI [16]: 3460 nM; GI50 [17]: 1890 nM; TGI [17]: 4810 nM; GI50 [18]: 1280 nM; TGI [18]: 2780 nM; GI50 [19]: 842 nM; TGI [19]: 2730 nM; GI50 [20]: 1000 nM; TGI [20]: 2810 nM; GI50 [21]: 1370 nM; TGI [21]: 2820 nM; GI50 [22]: 2670 nM; TGI [22]: 10200 nM; GI50 [23]: 1810 nM; TGI [23]: 3630 nM; GI50 [24]: 2230 nM; TGI [24]: 5730 nM; GI50 [25]: 1670 nM; TGI [25]: 3130 nM; GI50 [26]: 1380 nM; TGI [26]: 2750 nM; GI50 [27]: 1510 nM; TGI [27]: 2840 nM; GI50 [28]: 2680 nM
